Reference: patent publication US7988958B2, “Enterococcus and Streptococcus strains and bacteriocins” (The United States of America as represented by the …, priority 2005, dated 2011)

Tests used:
Test in all cases: MIC of purified bacteriocins and antibiotic by Spot Test
Assay type in all cases: cell-based
[1] = system: Pseudomonas aeruginosa; conditions: P. aeruginosa; 24 hours at 37° C., aerobic
Protocol: (§1) The minimal inhibiting concentrations (MICs) of bacteriocins 760 and 50-52 and Methicillin were determined by Spot Test. Various concentrations of purified bacteriocins (μg/ml) in a volume of 10 μl was added to cultures of Staphylococcus aureus, Staphylococcus epidermidis, Pseudomonas aeruginosa, and Helicobacter pylori. The cultures were incubated for about 24 hours at about 37° C. under aerobic conditions for all but Helicobacter pylori which was incubated under microaerobic conditions.

[2] = system: Staphylococcus aureus; conditions: S. aureus; 24 hours at 37° C., aerobic
Protocol: as §1

[3] = system: Helicobacter pylori; conditions: H. pylori; 24 hours at 37° C., microaerobic
Protocol: as §1

[4] = system: Staphylococcus epidermidis; conditions: S. epidermidis; 24 hours at 37° C., aerobic
Protocol: as §1

MIC of purified Bacteriocins and Antibiotic [1]: 78.4 µg/mL
MIC of purified Bacteriocins and Antibiotic [2]: 52.5 µg/mL
MIC of purified Bacteriocins and Antibiotic [3]: 93.8 µg/mL
MIC of purified Bacteriocins and Antibiotic [4]: 64.8 µg/mL
Structure (SMILES): COc1cccc(OC)c1C(=O)N[C@@H]1C(=O)N2[C@@H]1SC(C)(C)[C@@H]2C(=O)O [Methicillin, reference compound]
